We go through 23 molecules from article PMC8611036, “An integrated method for optimized identification of effective natural inhibitors against SARS-CoV-2 3CLpro” (Scientific Reports, 2021).

In data set [1] the target is T1, SARS-CoV-2 3CLpro (Severe acute respiratory syndrome coronavirus 2, UniProt P0DTD1). Description: Surface plasmon resonance analysis (Biacore T200). It is filed as binding.
Data set [2] has as its target T1, SARS-CoV-2 3CLpro. Description: SARS-CoV-2 3CLpro inhibition assay (fluorogenic substrate Dabcyl-[…]-Edans). It is filed as biochemical.
Data set [3] deals with T1, SARS-CoV-2 3CLpro. In words: Literature-collected IC50 of SARS-CoV-2 3CLpro inhibitors (test set). To be noted: class from pIC50 of the literature IC50. In kind it is biochemical.
Data set [4] has as its target T1, SARS-CoV-2 3CLpro. The settings on record: cited from earlier work; for IC50: unit not printed (pIC50 corresponds to µM).
Data set [5] deals with SARS-CoV 3CLpro. It is filed as biochemical. To be noted: activity class by pIC50 threshold 6.
Data set [6] has as its system SARS-CoV 3CLpro. The settings on record: SARS-CoV 3CLpro inhibitors (training set), ref: per compound, cited from earlier work.
For data set [7] the following is noted: ref TCMSP database, cited from earlier work.
[8] abbreviates: SPR, 25 °C, 3CLpro-his captured on CM7 chip, read-out: KD.
[9] abbreviates: from literature IC50, ref Jo, Seri et al. Journal of enzyme inhibition and medicinal chemistry vol. 35,1 (2020): 1539-1544.
[10] abbreviates: ref Jo, Seri et al. Journal of enzyme inhibition and medicinal chemistry vol. 35,1 (2020): 1539-1544.
Setting [11] is: from literature IC50, ref Zhu, Wei et al. ACS pharmacology & translational science vol. 3,5 (2020): 1008-1016.
Setting [12] is: ref Zhu, Wei et al. ACS pharmacology & translational science vol. 3,5 (2020): 1008-1016.
Where [13] appears, read: SARS-CoV-2 3CLpro in vitro dose–response inhibition, read-out: IC50.

Like-named read-outs stand apart in the source and are kept apart here.

Regarding `O=C(/C=C/c1ccc(O)c2c1[C@H](C(=O)O[C@H](Cc1ccc(O)c(O)c1)C(=O)O)[C@@H](c1ccc(O)c(O)c1)O2)O[C@H](Cc1ccc(O)c(O)c1)C(=O)O` [MOL007060], in data set [1], the Kd came out at 64 µM.

`O=C(/C=C/c1ccc(O)c2c1[C@H](C(=O)O)[C@@H](c1ccc(O)c(O)c1)O2)O[C@H](Cc1ccc(O)c(O)c1)C(=O)O` [MOL007113] showed a Kd in data set [1] of 15 µM.

In turn, `O=c1cc(-c2ccc(O)cc2)oc2c([C@@H]3O[C@H](CO)[C@@H](O)[C@H](O)[C@H]3O)c(O)c([C@@H]3OC[C@H](O)[C@H](O)[C@H]3O)c(O)c12` [Isoschaftoside, isoschaftoside] came in with an IC50 in data set [2] of 30.2 µM. The Kd in data set [1] worked out at 11.4 µM.

For `COc1cc(-c2oc3cc(O)cc(O)c3c(=O)c2O[C@@H]2O[C@H](CO)[C@@H](O)[C@H](O)[C@H]2O)ccc1O` [MOL007260], the Kd in data set [1] (setting [8]) was 9.45 µM.

`Cc1cc(O)c2c(=O)c3c(O)cc(O)c4c5c(O)cc(O)c6c(=O)c7c(O)cc(C)c8c1c2c(c34)c(c78)c65` [MOL002067]: the Kd in data set [1] came out at 19.9 µM.

In turn, `C[C@@H](CC[C@]1(O)O[C@H]2C[C@H]3[C@@H]4CC[C@@H]5C[C@@H](O[C@@H]6O[C@H](CO)[C@H](O)[C@H](O)[C@H]6O[C@@H]6O[C@H](CO)[C@@H](O)[C@H](O)[C@H]6O)CC[C@]5(C)[C@H]4CC[C@]3(C)[C@H]2[C@@H]1C)CO[C@@H]1O[C@H](CO)[C@@H](O)[C@H](O)[C@H]1O` [MOL004515] showed a Kd in data set [1] of 7.2 µM.

`O=c1c(O[C@@H]2O[C@H](CO)[C@H](O)[C@H](O)[C@H]2O)c(-c2ccc(O)c(O)c2)oc2cc(O)cc(O)c12` [MOL004368]: the Kd in data set [1] (setting [8]) amounted to 9.98 µM.

Consider `O=c1c(O)c(-c2ccc(O)cc2)oc2c(O)c(O)cc(O)c12` [CMP83], for which the “Inact.(<6)/Act.(>=6)” value in data set [3] is “Inact. (Inact.(<6))”. Also, the pIC50 in data set [4] (setting [9]) was 4.268. The IC50 in data set [4] (setting [10]) is 53.9 µM.

As to `C[C@@H]1O[C@@H](O[C@H]2[C@H](O[C@H]3CC[C@@]4(C)[C@@H](CC[C@]5(C)[C@H]4CC=C4[C@H]6CC(C)(C)CC[C@]6(C(=O)O[C@@H]6O[C@H](CO[C@@H]7O[C@H](CO)[C@@H](O)[C@H](O)[C@H]7O)[C@@H](O)[C@H](O)[C@H]6O)CC[C@]45C)[C@]3(C)CO)OC[C@H](O)[C@@H]2O)[C@H](O)[C@H](O)[C@H]1O` [MOL003034], the equilibrium dissociation constant (Kd) in data set [1] came to 10.9 µM.

`C[C@@H]1O[C@@H](O[C@@H]2[C@@H](O)[C@H](OCCc3ccc(O)c(O)c3)O[C@H](CO)[C@H]2OC(=O)/C=C/c2ccc(O)c(O)c2)[C@H](O)[C@H](O)[C@H]1O` [MOL003333] gave a Kd in data set [1] of 0.409 µM.

The molecule `C[C@@H]1O[C@@H](OC[C@H]2O[C@@H](Oc3c(-c4ccc(O)cc4)oc4cc(O)cc(O)c4c3=O)[C@H](O)[C@@H](O)[C@@H]2O)[C@H](O)[C@H](O)[C@H]1O` [MOL002693] yielded a Kd in data set [1] of 3.63 µM.

For `O=C(O)c1ccccc1-c1ccc(/C=C2\C(=O)N(c3ccccc3)N=C2c2ccccc2)o1` [CMP13, reference compound], the “Inact.(<6)/Act.(>=6)” value in data set [3] and in data set [5] was “Inact. (Inact.(<6))” in each case. Further, the figures for the pIC50 in data set [4] (setting [11]) and in data set [6] (from literature IC50) were 5.4828 and 4.3851, respectively. Moreover, the figures for the IC50 in data set [4] (setting [12]) and in data set [6] (literature values) were 3.29 µM and 41.2 µM, respectively.

In the case of `COc1ccc(-c2cc(=O)c3c(O)c(OC)c(OC4OC(COC5OC(C)C(O)C(O)C5O)C(O)C(O)C4O)cc3o2)cc1` (stereo not shown) [CMP84], the “Inact.(<6)/Act.(>=6)” value in data set [3] was “Inact. (Inact.(<6))”. Besides, the pIC50 in data set [4] (setting [9]) is recorded as 4.287. Further, in data set [4] (setting [10]), the IC50 was 51.6 µM.

As to `O=c1c(O[C@@H]2O[C@H](CO)[C@@H](O)[C@H](O)[C@H]2O[C@@H]2O[C@H](CO)[C@@H](O)[C@H](O)[C@H]2O)c(-c2ccc(O)cc2)oc2cc(O)cc(O)c12` [MOL002761], the Kd in data set [1] (setting [8]) was determined as 12.5 µM.

Take `O=c1c(O)c(-c2ccc(O)cc2)oc2cc(O)cc(O)c12` [MOL000422]: in data set [1] (setting [8]), the Kd was 24.6 µM.

Consider `O=C(/C=C/c1ccc(O)c(O)c1)O[C@H]1[C@H](O)C[C@](O)(C(=O)O)C[C@H]1OC(=O)/C=C/c1ccc(O)c(O)c1` [MOL001878], for which, in data set [1] (setting [8]), the Kd amounted to 0.047 µM.

In the case of `O=c1cc(-c2ccc(O)cc2)oc2c([C@@H]3O[C@H](CO)[C@@H](O)[C@H](O)[C@H]3O)c(O)c([C@@H]3O[C@H](CO)[C@@H](O)[C@H](O)[C@H]3O)c(O)c12` [Vicenin-2, vicenin-2], inhibition in data set [2] was half-maximal at 38.9 µM (IC50). This molecule also returned a Kd in data set [1] of 8.58 µM.

On to `COc1cc(-c2oc3cc(O)cc(O)c3c(=O)c2O[C@@H]2O[C@H](CO[C@@H]3O[C@@H](C)[C@H](O)[C@@H](O)[C@H]3O)[C@@H](O)[C@H](O)[C@H]2O)ccc1O` [Narcissoside, narcissoside], for which the IC50 in data set [2] (setting [13]) stood at 38.1 µM. Further, the Kd in data set [1] (setting [8]) stood at 10 µM.

Turning to `O=c1cc(-c2ccc(O)cc2)oc2cc(O[C@@H]3O[C@H](CO)[C@@H](O)[C@H](O)[C@H]3O)cc(O)c12` [MOL000007, Cosmetin], in data set [7] (number of hydrogen-bond acceptors), the HBA was 10. Further, the HBD in data set [7] (number of hydrogen-bond donors) is 6. In addition, the “OB (%)” value in data set [7] (oral bioavailability) is listed as 9.68%. Moreover, in data set [7], the BBB is -2.26, the Caco-2 was -1.08, the FASA- is 0.32 and the NRotB is 4.

`C[C@@H]1O[C@@H](OC[C@H]2O[C@@H](OCCc3ccc(O)c(O)c3)[C@H](O)[C@@H](O)[C@@H]2OC(=O)/C=C/c2ccc(O)c(O)c2)[C@H](O)[C@H](O)[C@H]1O` [MOL003331] came in with a Kd in data set [1] of 1.21 µM.

Take `O=C(/C=C/c1ccc(O)c(O)c1)O[C@@H]1C[C@@](OC(=O)/C=C/c2ccc(O)c(O)c2)(C(=O)O)C[C@@H](O)[C@@H]1O` [MOL007326]: in data set [1] (setting [8]), the Kd was 20.3 µM.

As to `O=C1/C(=C\c2ccc(-c3ccccc3)o2)C(c2ccccc2)=NN1c1ccccc1` [CMP10], the “Inact.(<6)/Act.(>=6)” value in data set [3] and in data set [5] was “Inact. (Inact.(<6))” in each case. Also, the pIC50 is reported as 4.652 in data set [4] (setting [11]) and 4.652 in data set [4] (test set (SARS-CoV-2 3CLpro inhibitors), collected from literature). In addition, the IC50 in data set [4] (setting [12]) was 22.3 µM.

Turning to `O=c1c(O[C@@H]2O[C@H](CO[C@@H]3O[C@H](CO)[C@@H](O)[C@H](O)[C@H]3O)[C@@H](O)[C@H](O)[C@H]2O)c(-c2ccc(O)cc2)oc2cc(O)cc(O)c12` [Kaempferol-3-O-gentiobioside, kaempferol-3-O-gentiobioside], the IC50 in data set [2] (setting [13]) came out at 35.9 µM. Further, in data set [1] (setting [8]), the Kd was 2.69 µM.
